What is called Ki is a measure of affinity in units of concentration, obtained from inhibition or displacement. Low readings indicate tighter binding, high ones weaker binding.

This experiment deals with T1, human plasma protein factor Xa (Homo sapiens, UniProt P00742).
T1 construct: The human plasma protein factor Xa was purchased from Haematologic Technologies; purchased Haematologic Technologies (Essex Junction, Vt.); host or cells: human plasma
T1 sequence (P00742 235-488 limits assumed): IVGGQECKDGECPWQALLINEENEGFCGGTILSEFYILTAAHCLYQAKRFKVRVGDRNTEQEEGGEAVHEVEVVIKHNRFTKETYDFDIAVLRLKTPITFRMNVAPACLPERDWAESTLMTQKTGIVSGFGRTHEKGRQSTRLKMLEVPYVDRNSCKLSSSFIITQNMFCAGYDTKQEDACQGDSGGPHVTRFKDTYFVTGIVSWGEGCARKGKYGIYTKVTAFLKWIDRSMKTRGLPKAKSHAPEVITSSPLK
T1 sequence (P00742 41-179 partner limits assumed): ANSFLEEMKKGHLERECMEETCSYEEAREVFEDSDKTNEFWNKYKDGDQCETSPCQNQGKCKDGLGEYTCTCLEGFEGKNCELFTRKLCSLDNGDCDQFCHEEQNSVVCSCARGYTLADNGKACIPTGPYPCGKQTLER
As to the kind of experiment: Factor Xa Ki determination (cleavage of chromogenic substrate S-2765). In kind it is biochemical. To be noted: fXa 1 nM, S-2765 200 μM, pH 7.4. The procedure:
Protocol for Assay of Factor Xa Inhibitors
The substrate S-2765 (Z-D-Arg-Gly-Arg-pNA.HCl) was obtained from Diapharma (West Chester, Ohio).
The human plasma protein factor Xa was purchased from Haematologic Technologies (Essex Junction, Vt.).
The assay buffer for this series of assays was: Hepes buffered saline (20 mM Hepes, 150 mM NaCl, 5 mM CaCl2, 0.1% PEG-8000, pH 7.4). In a 96-well microtiter plate, inhibitor was serially diluted in a duplicate set of wells to give a range of final concentrations from 5 pM to 3 μM final. Controls without inhibitor (8 wells) were included. The enzyme, fXa (1 nM final) was added to the wells. The substrate S-2765 (200 μM final) was added and the degree of substrate hydrolysis was measured at 405 nm on a Thermomax plate reader for 5 minutes, using Softmax software. Initial velocities (mOD/min) were analyzed by non-linear least squares regression in the Plate Ki software (BioKin Ltd, Pullman, Wash.)(Literature reference: Kusmic P, et al., “High-throughput screening of enzyme inhibitors: Automatic determination of tight-binding inhibition constants” Anal. Biochemistry 2000, 281:62–67). The model used for fitting the inhibitor dose-response curves was the Morrison equation. An apparent Ki (Ki*) was determined. The overall Ki was calculated using the following equation: […]
Turning to `CN(C)C(=N)c1ccc(C(=O)Nc2ccc(SCC(=O)N(C)C)cc2C(=O)Nc2ccc(Cl)cn2)cc1` [Example 1, N-(5-chloro-2-pyridinyl)-2-(4-N,N-dimethylamidinophenylcarbonyl)amino-5-acetic acid dimethylamide sulfanyl-phenylcarboxamide], the Ki is < 10 nM.
As to `CNC(=O)CSc1ccc(NC(=O)c2ccc(C3=NCCN3C)cc2)c(C(=O)Nc2ccc(Cl)cn2)c1` [Example 7], the Ki is < 10 nM.
Under `CN(C)C(=N)c1ccc(C(=O)Nc2ccc(SCC(=O)N3CCN(C(=O)OC(C)(C)C)CC3)cc2C(=O)Nc2ccc(Cl)cn2)cc1` [Example 3] stands < 10 nM; under `CN(C)C(=N)c1ccc(C(=O)Nc2ccc(SCC(=O)N3CCCCC3)cc2C(=O)Nc2ccc(Cl)cn2)cc1` [Example 2], < 10 nM; under `CN(C)C(=O)CSc1ccc(NC(=O)c2ccc(C3=NCCN3C)cc2)c(C(=O)Nc2ccc(Cl)cn2)c1` [Example 4], < 10 nM.
The same measure for `CN1CCN=C1c1ccc(C(=O)Nc2ccc(SCC(N)=O)cc2C(=O)Nc2ccc(Cl)cn2)cc1` [Example 6]: < 10 nM.
As to `CN(C)CCSc1ccc(NC(=O)c2ccc(C(=N)N(C)C)cc2)c(C(=O)Nc2ccc(Cl)cn2)c1` [Example 9], the Ki was < 10 nM.

For the origin of these results see patent US7022695B2, “Thioether-substituted benzamides as inhibitors of Factor Xa” (Millennium Pharmaceuticals, Inc., priority 2003, dated 2006).
